According to patent US9718828B2 (MERCK SHARP & DOHME CORP., priority 2011, dated 2017):
Counter-ions that a name gives are not always drawn.

Biological target: hBTK (full-length BTK, 6HIS-tag cleaved) (Homo sapiens (Human), UniProt Q06187)
Experiment: BTK enzymatic activity, LANCE TR-FRET assay (Assay Method C)
Format: biochemical
Details: LANCE TR-FRET, 50 pM hBTK, 25 μM ATP; class 100-1000 is given as ≧100 nM-<1 μM; read-out: IC50 Btk activity values - Assay Method C

Sequence of hBTK (full-length BTK, 6HIS-tag cleaved) (Q06187 whole entry): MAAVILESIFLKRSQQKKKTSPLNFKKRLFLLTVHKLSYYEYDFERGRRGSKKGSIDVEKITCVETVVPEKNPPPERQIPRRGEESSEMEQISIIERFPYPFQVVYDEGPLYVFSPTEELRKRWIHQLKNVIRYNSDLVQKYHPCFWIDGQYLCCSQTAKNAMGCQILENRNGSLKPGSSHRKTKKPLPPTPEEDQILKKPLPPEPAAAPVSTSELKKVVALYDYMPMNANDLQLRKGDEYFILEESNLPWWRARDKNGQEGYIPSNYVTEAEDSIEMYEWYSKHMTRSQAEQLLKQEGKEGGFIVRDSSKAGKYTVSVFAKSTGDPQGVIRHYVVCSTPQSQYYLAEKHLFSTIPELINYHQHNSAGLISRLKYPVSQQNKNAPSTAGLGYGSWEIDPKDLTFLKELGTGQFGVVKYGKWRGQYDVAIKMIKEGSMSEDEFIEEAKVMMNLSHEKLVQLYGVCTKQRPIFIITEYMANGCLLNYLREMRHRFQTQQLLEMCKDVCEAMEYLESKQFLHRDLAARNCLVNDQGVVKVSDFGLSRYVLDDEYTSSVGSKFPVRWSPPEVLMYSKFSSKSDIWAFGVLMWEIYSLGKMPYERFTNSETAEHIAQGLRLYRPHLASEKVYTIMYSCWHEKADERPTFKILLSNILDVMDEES

IC50	Compound
< 10 nM	Nc1nccn2c([C@H]3CC[C@@H](CO)N(C(=O)C4CC4)C3)nc(-c3ccc(C(=O)Nc4cc(C(F)(F)F)ccn4)cc3)c12 [Example 419, 4-{8-amino-3-[(3S,6S)-1-(cyclopropylcarbonyl)-6-(hydroxymethyl)piperidin-3-yl]imidazo[1,5-a]pyrazin-1-yl}-N-[4-(trifluoromethyl)pyridin-2-yl]benzamide]
10 to 100 nM	CC1(C(=O)N2CCC[C@@H](c3nc(-c4ccc(C(=O)Nc5ccc(C(F)(F)F)cn5)cc4)c4c(N)nccn34)C2)COC1 [Example 359, 4-(8-amino-3-{(3R)-1-[(3-methyloxetan-3-yl)carbonyl]piperidin-3-yl}imidazo[1,5-a]pyrazin-1-yl)-N-[5-(trifluoromethyl)pyridin-2-yl]benzamide]
< 10 nM	Cc1ccnc(NC(=O)c2ccc(-c3nc([C@@H]4CCCN(C(=O)C5(C)COC5)C4)n4c(Cl)cnc(N)c34)c(F)c2)c1 [Example 448, 4-(8-amino-5-chloro-3-{(3R)-1-[(3-methyloxetan-3-yl)carbonyl]piperidin-3-yl}imidazo[1,5-a]pyrazin-1-yl)-3-fluoro-N-(4-methylpyridin-2-yl)benzamide]
< 10 nM	N#CCCN1CCO[C@@H](c2nc(-c3ccc(C(=O)Nc4cc(C(F)(F)F)ccn4)cc3)c3c(N)nccn23)C1 [Example 532, 4-{8-amino-3-[(2R)-4-(2-cyanoethyl)morpholin-2-yl]imidazo[1,5-a]pyrazin-1-yl}-N-[4-(trifluoromethyl)pyridin-2-yl]benzamide]
< 10 nM	CC(=O)N1C[C@H](c2nc(-c3ccc(C(=O)Nc4cc(C(F)F)ccn4)cc3F)c3c(N)ncc(C)n23)CC[C@@H]1C [Example 461, 4-{3-[(3R,6S)-1-acetyl-6-methylpiperidin-3-yl]-8-amino-5-methylimidazo[1,5-a]pyrazin-1-yl}-N-[4-(difluoromethyl)pyridin-2-yl]-3-fluorobenzamide]
10 to 100 nM	CC1(C(=O)N2CCC[C@@H](c3nc(-c4ccc(C(=O)Nc5ncc6c(n5)CCC6)cc4)c4c(N)nccn34)C2)COC1 [Example 364, 4-(8-amino-3-{(3R)-1-[(3-methyloxetan-3-yl)carbonyl]piperidin-3-yl}imidazo[1,5-a]pyrazin-1-yl)-N-(6,7-dihydro-5H-cyclopenta[d]pyrimidin-2-yl)benzamide]
< 10 nM	Cn1cc(CN2C[C@H](c3nc(-c4ccc(C(=O)Nc5cc(C(F)(F)F)ccn5)cc4)c4c(N)nccn34)OC[C@@H]2CO)cn1 [Example 548, 4-(8-amino-3-{(2R,5S)-5-(hydroxymethyl)-4-[(1-methyl-1H-pyrazol-4-yl)methyl]morpholin-2-yl}imidazo[1,5-a]pyrazin-1-yl)-N-[4-(trifluoromethyl)pyridin-2-yl]benzamide, TFA salt]
< 10 nM	Nc1nccn2c([C@@H]3CCCN(C(=O)CCC(F)(F)F)C3)nc(-c3ccc(C(=O)Nc4cc(C(F)(F)F)ccn4)cc3)c12 [Example 331, 4-{8-amino-3-[(3R)-1-(4,4,4-trifluorobutanoyl)piperidin-3-yl]imidazo[1,5-a]pyrazin-1-yl}-N-[4-(trifluoromethyl)pyridin-2-yl]benzamide]
< 10 nM	N#CCN1CCO[C@@H](c2nc(-c3ccc(C(=O)Nc4cc(C(F)(F)F)ccn4)cc3)c3c(N)nccn23)C1 [Example 531, 4-{8-amino-3-[(2R)-4-(cyanomethyl)morpholin-2-yl]imidazo[1,5-a]pyrazin-1-yl}-N-[4-(trifluoromethyl)pyridin-2-yl]benzamide]
10 to 100 nM	Cc1cnc(N)c2c(-c3ccc(C(=O)Nc4cc(C(F)(F)F)ccn4)cc3)nc([C@H]3CN(C(=O)C4(C)COC4)CCO3)n12 [Example 506, 4-(8-amino-5-methyl-3-{(2R)-4-[(3-methyloxetan-3-yl)carbonyl]morpholin-2-yl}imidazo[1,5-a]pyrazin-1-yl)-N-[4-(trifluoromethyl)pyridin-2-yl]benzamide]
< 10 nM	CCCOc1ccnc(NC(=O)c2ccc(-c3nc([C@@H]4CCCN(C(=O)C5(C)COC5)C4)n4ccnc(N)c34)c(F)c2)c1 [Example 481, 4-(8-amino-3-{(3R)-1-[(3-methyloxetan-3-yl)carbonyl]piperidin-3-yl}imidazo[1,5-a]pyrazin-1-yl)-3-fluoro-N-(4-propoxypyridin-2-yl)benzamide]
< 10 nM	COCC(=O)N1CCO[C@@H](c2nc(-c3ccc(C(=O)Nc4cc(C(F)(F)F)ccn4)cc3)c3c(N)ncc(C)n23)C1 [Example 536, 4-{8-amino-3-[(2R)-4-(methoxyacetyl)morpholin-2-yl]-5-methylimidazo[1,5-a]pyrazin-1-yl}-N-[4-(trifluoromethyl)pyridin-2-yl]benzamide, TFA salt]
< 10 nM	CCC(=O)N1CCC[C@@H](c2nc(-c3ccc(C(=O)Nc4cc(OC)ccn4)cc3)c3c(N)nccn23)C1 [Example 372, 4-{8-amino-3-[(3R)-1-propanoylpiperidin-3-yl]imidazo[1,5-a]pyrazin-1-yl}-N-(4-methoxypyridin-2-yl)benzamide]
< 10 nM	CC1(C(=O)N2CCC[C@@H](c3nc(-c4ccc(C(=O)Nc5cc(C(C)(F)F)ccn5)cc4F)c4c(N)nccn34)C2)COC1 [Example 484, 4-(8-amino-3-{(3R)-1-[(3-methyloxetan-3-yl)carbonyl]piperidin-3-yl}imidazo[1,5-a]pyrazin-1-yl)-N-[4-(1,1-difluoroethyl)pyridin-2-yl]-3-fluorobenzamide]
< 10 nM	Cc1cnc(N)c2c(-c3ccc(C(=O)Nc4cc(C(F)(F)F)ccn4)cc3)nc([C@H]3CN(CCO)CCO3)n12 [Example 540, 4-{8-amino-3-[(2R)-4-(2-hydroxyethyl)morpholin-2-yl]-5-methylimidazo[1,5-a]pyrazin-1-yl}-N-[4-(trifluoromethyl)pyridin-2-yl]benzamide, TFA salt]
10 to 100 nM	CCN1CCC(c2nc(-c3ccc(C(=O)Nc4cc(C(F)(F)F)ccn4)cc3)c3c(N)nccn23)CC1=O (stereo not drawn) [Example 573, 4-[8-amino-3-(1-ethyl-2-oxopiperidin-4-yl)imidazo[1,5-a]pyrazin-1-yl]-N-[4-(trifluoromethyl)-pyridin-2-yl]benzamide, TFA salt]
< 10 nM	CCC(=O)N1CCC[C@@H](c2nc(-c3ccc(C(=O)Nc4cc(C(F)F)ccn4)cc3F)c3c(N)nccn23)C1 [Example 488, 4-{8-amino-3-[(3R)-1-propanoylpiperidin-3-yl]imidazo[1,5-a]pyrazin-1-yl}-N-[4-(difluoromethyl)pyridin-2-yl]-3-fluorobenzamide]
< 10 nM	Cc1cnc(N)c2c(-c3ccc(C(=O)Nc4cc(C(C)(F)F)ccn4)cc3)nc([C@@H]3CCCN(C(=O)C4(C)COC4)C3)n12 [Example 454, 4-(8-amino-5-methyl-3-{(3R)-1-[(3-methyloxetan-3-yl)carbonyl]piperidin-3-yl}imidazo[1,5-a]pyrazin-1-yl)-N-[4-(1,1-difluoroethyl)pyridin-2-yl]benzamide]
< 10 nM	CN1CC(C(=O)N2CCO[C@@H](c3nc(-c4ccc(C(=O)Nc5cc(C(F)(F)F)ccn5)cc4)c4c(N)nccn34)C2)C1 [Example 501, 4-(8-amino-3-{(2R)-4-[(1-methylazetidin-3-yl)carbonyl]morpholin-2-yl}imidazo[1,5-a]pyrazin-1-yl)-N-[4-(trifluoromethyl)pyridin-2-yl]benzamide]
< 10 nM	Cc1noc(C)c1C(=O)N1CCC[C@@H](c2nc(-c3ccc(C(=O)Nc4cc(C(F)(F)F)ccn4)cc3)c3c(N)nccn23)C1 [Example 328]
< 10 nM	Nc1ncnc2c1c(-c1ccc(C(=O)Nc3cc(C(F)(F)F)ccn3)cc1)nn2[C@@H]1CCCc2c1cnn2CCO [Example 561, 4-{4-amino-1-[(4R)-1-(2-hydroxyethyl)-4,5,6,7-tetrahydro-1H-indazol-4-yl]-1H-pyrazolo[3,4-d]pyrimidin-3-yl}-N-[4-(trifluoromethyl)pyridin-2-yl]benzamide, TFA salt]
< 10 nM	CC1(C(=O)N2CCC[C@@H](n3nc(-c4ccc(C(=O)Nc5cc(C(F)(F)F)ccn5)cc4)c4c(N)nccc43)C2)COC1 [Example 381, 4-(4-amino-1-{(3R)-1-[(3-methyloxetan-3-yl)carbonyl]piperidin-3-yl}-1H-pyrazolo[4,3-c]pyridin-3-yl)-N-[4-(trifluoromethyl)pyridin-2-yl]benzamide]
< 10 nM	CN(C)CC(=O)N1CCC[C@@H](c2nc(-c3ccc(C(=O)Nc4cc(C(F)(F)F)ccn4)cc3)c3c(N)nccn23)C1 [Example 347, 4-{8-amino-3-[(3R)-1-(N,N-dimethylglycyl)piperidin-3-yl]imidazo[1,5-a]pyrazin-1-yl}-N-[4-(trifluoromethyl)pyridin-2-yl]benzamide]
< 10 nM	C[C@@H](O)C(=O)N1CCO[C@@H](c2nc(-c3ccc(C(=O)Nc4cc(C(F)(F)F)ccn4)cc3)c3c(N)nccn23)C1 [Example 520, 4-(8-amino-3-{(2R)-4-[(2R)-2-hydroxypropanoyl]morpholin-2-yl}imidazo[1,5-a]pyrazin-1-yl)-N-[4-(trifluoromethyl)pyridin-2-yl]benzamide]
100 to 1000 nM	Cn1cc2c(n1)CCC[C@H]2n1nc(-c2ccc(C(=O)Nc3cc(C(F)(F)F)ccn3)cc2)c2c(N)ncnc21 [Example 557, 4-{4-amino-1-[(4R)-2-methyl-4,5,6,7-tetrahydro-2H-indazol-4-yl]-1H-pyrazolo[3,4-d]pyrimidin-3-yl}-N-[4-(trifluoromethyl)pyridin-2-yl]benzamide, TFA salt]
< 10 nM	CN1C[C@@H](c2nc(-c3ccc(C(=O)Nc4cc(C(F)(F)F)ccn4)cc3F)c3c(N)nccn23)CC[C@@H]1C(F)(F)F [Example 411, 4-{8-amino-3-[(3S,6R)-1-methyl-6-(trifluoromethyl)piperidin-3-yl]imidazo[1,5-a]pyrazin-1-yl}-3-fluoro-N-[4-(trifluoromethyl)pyridin-2-yl]benzamide]
< 10 nM	COCC(=O)N1CCC[C@@H](c2nc(-c3ccc(C(=O)Nc4cc(C(F)(F)F)ccn4)cc3)c3c(N)ncc(Cl)n23)C1 [Example 442, 4-{8-amino-5-chloro-3-[(3R)-1-(methoxyacetyl)piperidin-3-yl]imidazo[1,5-a]pyrazin-1-yl}-N-[4-(trifluoromethyl)pyridin-2-yl]benzamide]
